Measurements: article PMC9120017, “Inhibition mechanism of the chloride channel TMEM16A by the pore blocker 1PBC” (Nature Communications, 2022)
Read-outs that look alike come from different tables or passages of the source.

Biological target: T1, wild-type mouse TMEM16A (Mus musculus, UniProt Q8BHY3)
T1 construct: expressed in transfected cells; host or cells: HEK293T
T1 sequence (Q8BHY3 1-960): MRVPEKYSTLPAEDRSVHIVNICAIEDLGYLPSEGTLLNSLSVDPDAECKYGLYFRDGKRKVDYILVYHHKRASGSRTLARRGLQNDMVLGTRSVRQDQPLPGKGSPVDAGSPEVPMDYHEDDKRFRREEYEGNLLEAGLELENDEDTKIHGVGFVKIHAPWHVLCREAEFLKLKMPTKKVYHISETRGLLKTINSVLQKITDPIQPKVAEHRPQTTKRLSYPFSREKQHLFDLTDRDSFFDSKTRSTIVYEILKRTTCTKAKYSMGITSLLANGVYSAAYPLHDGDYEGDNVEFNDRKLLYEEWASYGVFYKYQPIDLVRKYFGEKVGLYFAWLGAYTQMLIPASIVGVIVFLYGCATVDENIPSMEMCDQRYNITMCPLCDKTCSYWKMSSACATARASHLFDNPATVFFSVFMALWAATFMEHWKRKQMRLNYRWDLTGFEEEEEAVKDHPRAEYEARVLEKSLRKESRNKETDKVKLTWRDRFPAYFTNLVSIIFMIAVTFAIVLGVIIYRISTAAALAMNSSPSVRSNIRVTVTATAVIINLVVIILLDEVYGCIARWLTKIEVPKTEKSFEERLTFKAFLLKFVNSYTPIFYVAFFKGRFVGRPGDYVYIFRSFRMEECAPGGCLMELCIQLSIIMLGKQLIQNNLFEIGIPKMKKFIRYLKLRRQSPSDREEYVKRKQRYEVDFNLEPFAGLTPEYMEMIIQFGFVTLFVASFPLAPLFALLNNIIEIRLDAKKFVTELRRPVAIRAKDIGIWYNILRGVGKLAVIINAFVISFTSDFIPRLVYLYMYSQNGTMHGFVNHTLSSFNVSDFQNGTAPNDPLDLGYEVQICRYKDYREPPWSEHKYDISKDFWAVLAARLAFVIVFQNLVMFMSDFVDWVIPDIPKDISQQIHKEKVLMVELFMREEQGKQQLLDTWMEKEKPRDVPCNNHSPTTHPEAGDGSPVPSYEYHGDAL
Test: Inside-out patch recording of 1PBC block, wild-type TMEM16A
Assay type: cell-based
Method: HEK293T cells (ATCC CRL-1573) were maintained in Dulbecco’s modified Eagle’s medium (DMEM; Sigma-Aldrich) supplemented with 10 U ml^−1 penicillin, 0.1 mg ml^−1 streptomycin (Sigma-Aldrich), 2 mM L-glutamine (Sigma-Aldrich), and 10% FBS (Sigma-Aldrich) in a humidified atmosphere containing 5% CO2 at 37 °C. HEK293S GnTI^− cells (ATCC CRL-3022) were maintained in HyClone HyCell TransFx-H medium (GE Healthcare) supplemented with 10 U ml^−1 penicillin, 0.1 mg ml^−1 streptomycin, 4 mM L-glutamine, 0.15% poloxamer 188 (Sigma-Aldrich), and 1% FBS in an atmosphere containing 5% CO2 at 185 rpm at 37 °C. The ac splice variant of mouse TMEM16A (UniProt ID: Q8BHY3), mouse TMEM16B (UniProt ID: Q8CFW1), or mouse TMEM16F (UniProt ID: Q6P9J9) bearing a 3C cleavage site, a Venus YFP, a Myc tag, and a Streptavidin-binding peptide (SBP) downstream of the open reading frame in a modified pcDNA3.1 vector (Invitrogen) were used as described previously[21],[31]. Mutations were introduced using a modified QuikChange method[58] and were verified by sequencing.
HEK293T cells were transfected with 3–4 μg DNA per 6 cm Petri dish using the calcium phosphate co-precipitation method and were used within 24–96 h after transfection. Recordings were performed on inside-out patches excised from HEK293T cells expressing the construct of interest. Patch pipettes were pulled from borosilicate glass capillaries (O.D. 1.5 mm, I.D. 0.86 mm, Sutter Instrument) and were fire-polished with a microforge (Narishige) before use. Pipette resistance was typically 3–8 MΩ when filled with the recording solutions detailed below. Seal resistance was typically 4 GΩ or higher. Voltage-clamp recordings were made using Axopatch 200B, Digidata 1550, and Clampex 10.7 (Molecular Devices). Analog signals were filtered with the in-built 4-pole Bessel filter at 10 kHz and were digitized at 20 kHz. Solution exchange was achieved using a gravity-fed system through a theta glass pipette mounted on an ultra-fast piezo-driven stepper (Siskiyou). […] All recordings were performed at 20 °C.
A symmetrical ionic condition was used throughout. Stock solution with Ca^2+-EGTA contained 150 mM NaCl, 5.99 mM Ca(OH)2, 5 mM EGTA, and 10 mM HEPES at pH 7.40. Stock solution with EGTA contained 150 mM NaCl, 5 mM EGTA, and 10 mM HEPES at pH 7.40. Free Ca^2+ concentrations were adjusted by mixing the stock solutions at the required ratios calculated using the WEBMAXC program (http://web.stanford.edu/~cpatton/webmaxcS.htm). Patch pipettes were filled with the stock solution with Ca^2+-EGTA, which has a free Ca^2+ concentration of 1 mM. 1PBC (ChemBridge) stock was reconstituted in anhydrous DMSO (Sigma-Aldrich) at 100 mM and stored at −20 °C. Working solutions with 1PBC were prepared by serial dilution. Unless otherwise stated, experiments were performed at a saturating Ca^2+ concentration as shown in Supplementary Table 1 and the primary data were corrected for current rundown as described previously[21],[25].
Concentration-response relations, obtained from the ratio of the I-V plots before and after the application of the blocker, were fitted to the Hill equation,1 I/Imax=1/1+IC50/[blocker]^h where I/Imax is the normalized current responses, IC50 defines the concentration at which inhibition is at its half-maximum, and h is the Hill coefficient.

`N#Cc1c(C(F)(F)F)cc(O)n2c1nc1ccccc12` [1PBC] was tested, and the “Steady-state current (normalized)” value (10 µM 1PBC, -60 mV, 2 µM Ca2+) was -0.2628, the remaining activity at 10 µM (10 µM 1PBC, -60 mV, 2 µM Ca2+, read-out: I/Imax) was 45.4% and the “Steady-state current (normalized)” value (10 µM 1PBC, -80 mV, 2 µM Ca2+) was -0.388. The remaining activity at 10 µM (10 µM 1PBC, -80 mV, 2 µM Ca2+, read-out: I/Imax) was 50.6%, the “Steady-state current (normalized)” value (10 µM 1PBC, -100 mV, 2 µM Ca2+) was -0.5211 and the remaining activity at 10 µM (10 µM 1PBC, -100 mV, 2 µM Ca2+, read-out: I/Imax) was 54.8%. The “Steady-state current (normalized)” value (10 µM 1PBC, -120 mV, 2 µM Ca2+) was -0.6616, the remaining activity at 10 µM (10 µM 1PBC, -120 mV, 2 µM Ca2+, read-out: I/Imax) was 59.1% and the “Steady-state current (normalized)” value (10 µM 1PBC, -140 mV, 2 µM Ca2+) was -0.7984. For the same compound, the remaining activity at 10 µM (10 µM 1PBC, -140 mV, 2 µM Ca2+, read-out: I/Imax) was 62.2%, the “Steady-state current (normalized)” value (30 µM 1PBC, 0 mV, 2 µM Ca2+) was 0.0002811 and the remaining activity at 30 µM (30 µM 1PBC, 0 mV, 2 µM Ca2+, read-out: I/Imax) was 11.5%. For the same compound, the “I/Imax scaled to open probability” value (30 µM 1PBC, 400 nM Ca2+, 80 mV) was 0.04177, the “I/Imax scaled to open probability” value (30 µM 1PBC, 800 nM Ca2+, 80 mV) was 0.04061 and the “I/Imax scaled to open probability” value (30 µM 1PBC, 2 µM Ca2+, 80 mV) was 0.05533. For the same compound, the “Steady-state current (normalized)” value (30 µM 1PBC, 20 mV, 2 µM Ca2+) was 0.01874, the remaining activity at 30 µM (30 µM 1PBC, 20 mV, 2 µM Ca2+, read-out: I/Imax) was 9.63% and the “Steady-state current (normalized)” value (30 µM 1PBC, 40 mV, 2 µM Ca2+) was 0.03065. For the same compound, the remaining activity at 30 µM (30 µM 1PBC, 40 mV, 2 µM Ca2+, read-out: I/Imax) was 8.13%, the “Steady-state current (normalized)” value (30 µM 1PBC, 60 mV, 2 µM Ca2+) was 0.03882 and the remaining activity at 30 µM (30 µM 1PBC, 60 mV, 2 µM Ca2+, read-out: I/Imax) was 7.03%. For the same compound, the “Steady-state current (normalized)” value (30 µM 1PBC, 80 mV, 2 µM Ca2+) was 0.04513, the remaining activity at 30 µM (30 µM 1PBC, 80 mV, 2 µM Ca2+, read-out: I/Imax) was 6.38% and the “Steady-state current (normalized)” value (30 µM 1PBC, 100 mV, 2 µM Ca2+) was 0.0498. For the same compound, the remaining activity at 30 µM (30 µM 1PBC, 100 mV, 2 µM Ca2+, read-out: I/Imax) was 5.86%, the “Steady-state current (normalized)” value (30 µM 1PBC, 120 mV, 2 µM Ca2+) was 0.05715 and the remaining activity at 30 µM (30 µM 1PBC, 120 mV, 2 µM Ca2+, read-out: I/Imax) was 5.87%. The “Steady-state current (normalized)” value (30 µM 1PBC, 140 mV, 2 µM Ca2+) was 0.0661, the remaining activity at 30 µM (30 µM 1PBC, 140 mV, 2 µM Ca2+, read-out: I/Imax) was 6.08% and the “Steady-state current (normalized)” value (30 µM 1PBC, -20 mV, 2 µM Ca2+) was -0.02579. For the same compound, the remaining activity at 30 µM (30 µM 1PBC, -20 mV, 2 µM Ca2+, read-out: I/Imax) was 13.4%, the “Steady-state current (normalized)” value (30 µM 1PBC, -40 mV, 2 µM Ca2+) was -0.06545 and the remaining activity at 30 µM (30 µM 1PBC, -40 mV, 2 µM Ca2+, read-out: I/Imax) was 16.9%. For the same compound, the “Steady-state current (normalized)” value (30 µM 1PBC, -60 mV, 2 µM Ca2+) was -0.1171, the remaining activity at 30 µM (30 µM 1PBC, -60 mV, 2 µM Ca2+, read-out: I/Imax) was 20.2% and the “Steady-state current (normalized)” value (30 µM 1PBC, -80 mV, 2 µM Ca2+) was -0.1843. The remaining activity at 30 µM (30 µM 1PBC, -80 mV, 2 µM Ca2+, read-out: I/Imax) was 24%, the “Steady-state current (normalized)” value (30 µM 1PBC, -100 mV, 2 µM Ca2+) was -0.264 and the remaining activity at 30 µM (30 µM 1PBC, -100 mV, 2 µM Ca2+, read-out: I/Imax) was 27.8%. The “Steady-state current (normalized)” value (30 µM 1PBC, -120 mV, 2 µM Ca2+) was -0.3545, the remaining activity at 30 µM (30 µM 1PBC, -120 mV, 2 µM Ca2+, read-out: I/Imax) was 31.7% and the “Steady-state current (normalized)” value (30 µM 1PBC, -140 mV, 2 µM Ca2+) was -0.4476. For the same compound, the remaining activity at 30 µM (30 µM 1PBC, -140 mV, 2 µM Ca2+, read-out: I/Imax) was 34.8%, the “Steady-state current (normalized)” value (100 µM 1PBC, 0 mV, 2 µM Ca2+) was 0.0001085 and the remaining activity at 100 µM (100 µM 1PBC, 0 mV, 2 µM Ca2+, read-out: I/Imax) was 4.44%. For the same compound, the “I/Imax scaled to open probability” value (100 µM 1PBC, 400 nM Ca2+, 80 mV) was 0.01539 and the “I/Imax scaled to open probability” value (100 µM 1PBC, 800 nM Ca2+, 80 mV) was 0.01603.
